Values of other authors in patent US12528823B2, “Inhibitors of aldose reductase” (Applied Therapeutics, Inc., priority 2019, dated 2026).

Experiments:
[1] = positive control; published/known value; octanol/pH 7.4 phosphate buffer
[2] = system: ischemic injury (cerebral infarction); conditions: normal mice; single oral dose either 30 mins before ischemia or 1 h 45 mins after ischemia

C[C@]12CC[C@H]3[C@@H](CCC4=CC(=O)CC[C@@]43C)[C@@H]1CC[C@@H]2O [Testosterone]
Log D [1]: 3.0-3.4

NC(=O)[C@@H]1C[C@]2(NC(=O)NC2=O)c2cc(F)ccc2O1 [Fidarestat]
reduction in infarct volume resulting from ischemic injury [2]: 16-25%
